Results published in publication PMC2248166, “Quantitative peptide binding motifs for 19 human and mouse MHC class I molecules derived using positional scanning combinatorial peptide libraries” (Immunome Research, 2008).
Where a SMILES comes first, the peptide text is derived from it.

What follows are compounds tested against HLA A*3001 (Homo sapiens, UniProt P04439, D140H/D185E/E176W/F33S/G80R/H175R/K168Q/R138E/R41S) (assay: biochemical).
Chain of HLA A*3001 (P04439 25-365 limits assumed, stated change not applied): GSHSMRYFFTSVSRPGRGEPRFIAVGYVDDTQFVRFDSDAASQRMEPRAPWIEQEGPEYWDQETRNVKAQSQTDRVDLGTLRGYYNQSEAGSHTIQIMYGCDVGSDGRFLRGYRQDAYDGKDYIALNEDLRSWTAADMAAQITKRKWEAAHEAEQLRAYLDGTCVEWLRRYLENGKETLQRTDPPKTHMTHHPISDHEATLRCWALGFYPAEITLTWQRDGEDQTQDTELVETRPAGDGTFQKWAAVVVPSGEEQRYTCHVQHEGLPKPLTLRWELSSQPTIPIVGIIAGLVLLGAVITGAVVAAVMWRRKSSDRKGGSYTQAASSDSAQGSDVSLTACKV
Assay type: binding
Work on `CC(C)C[C@H](NC(=O)[C@H](CO)NC(=O)[C@H](Cc1c[nH]cn1)NC(=O)[C@H](CC(C)C)NC(=O)[C@H](CCCNC(=N)N)NC(=O)[C@H](C)NC(=O)[C@H](CO)NC(=O)[C@@H](NC(=O)[C@@H](N)Cc1c[nH]cn1)[C@@H](C)O)C(=O)O` [3102.0250] (H-HTSARLHSL-OH) yielded an IC50 of 4.1 nM. With `CC[C@H](C)[C@H](NC(=O)[C@H](Cc1ccccc1)NC(=O)[C@H](CC(C)C)NC(=O)[C@H](CC(=O)O)NC(=O)[C@H](CCCNC(=N)N)NC(=O)[C@@H](NC(=O)[C@@H](N)CCCNC(=N)N)[C@@H](C)O)C(=O)N[C@@H](C)C(=O)N[C@@H](CC(C)C)C(=O)O` [3102.0188] (H-RTRDLFIAL-OH) the IC50 was 0.11 nM. `CC[C@H](C)[C@H](NC(=O)[C@H](CCSC)NC(=O)[C@H](Cc1ccccc1)NC(=O)[C@H](CC(=O)O)NC(=O)[C@H](CC(N)=O)NC(=O)[C@H](CCCCN)NC(=O)[C@@H](NC(=O)[C@@H](N)Cc1c[nH]cn1)[C@@H](C)CC)C(=O)N[C@@H](CCCCN)C(=O)O` [3102.0101] (H-HIKNDFMIK-OH) was tested, and the IC50 was 1.6 nM. Work on `CSCC[C@H](NC(=O)[C@H](Cc1ccc(O)cc1)NC(=O)[C@H](CC(N)=O)NC(=O)[C@H](Cc1ccc(O)cc1)NC(=O)[C@H](CO)NC(=O)[C@H](CCCCN)NC(=O)[C@@H](NC(=O)[C@@H](N)CCCCN)C(C)C)C(=O)N[C@@H](CC(C)C)C(=O)O` [3102.0219] (H-KVKSYNYML-OH) yielded an IC50 of 0.18 nM. In the case of `CC[C@H](C)[C@H](NC(=O)[C@H](CC(N)=O)NC(=O)[C@H](CCCNC(=N)N)NC(=O)[C@@H](NC(=O)[C@H](CCCNC(=N)N)NC(=O)[C@H](CO)NC(=O)CN)C(C)C)C(=O)N[C@H](C(=O)N[C@@H](C)C(=O)O)[C@@H](C)CC` [3102.0112] (H-GSRVRNIIA-OH), the IC50 is reported as 8.9 nM. In the case of `CC[C@H](C)[C@H](N)C(=O)N[C@H](C(=O)N[C@@H](CCCCN)C(=O)N[C@@H](CO)C(=O)N1CCC[C@H]1C(=O)N[C@@H](Cc1ccc(O)cc1)C(=O)N[C@@H](CCSC)C(=O)N[C@@H](Cc1ccccc1)C(=O)N[C@@H](C)C(=O)O)[C@@H](C)CC` [3102.0003] (H-IIKSPYMFA-OH), the IC50 is reported as 6.4 nM. For `CC(C)[C@H](NC(=O)[C@H](CO)NC(=O)[C@@H](NC(=O)[C@H](Cc1ccc(O)cc1)NC(=O)[C@@H](NC(=O)[C@H](Cc1ccccc1)NC(=O)[C@H](CCCCN)NC(=O)[C@H](CO)NC(=O)[C@H](C)N)C(C)C)C(C)C)C(=O)O` [3102.0152] (H-ASKFVYVSV-OH), the IC50 was 3.1 nM. In the case of `CC[C@H](C)[C@H](NC(=O)[C@H](CCCCN)NC(=O)[C@H](CC(N)=O)NC(=O)[C@H](CC(N)=O)NC(=O)[C@H](CCCCN)NC(=O)[C@@H](NC(=O)[C@@H](N)CCSC)C(C)C)C(=O)N[C@@H](CCC(N)=O)C(=O)N[C@@H](CCCCN)C(=O)O` [3102.0137] (H-MVKNNKIQK-OH), the IC50 is reported as 12 nM. `CC[C@H](C)[C@H](NC(=O)[C@@H](NC(=O)[C@@H](N)CCCCN)[C@@H](C)O)C(=O)N[C@@H](Cc1c[nH]c2ccccc12)C(=O)N[C@@H](CCC(=O)O)C(=O)N[C@H](C(=O)N1CCC[C@H]1C(=O)N[C@@H](CCC(N)=O)C(=O)N[C@@H](CCCCN)C(=O)O)[C@@H](C)CC` [3102.0190] (H-KTIWEIPQK-OH) showed an IC50 of 12 nM. `CC(C)[C@H](NC(=O)[C@@H](N)CCCNC(=N)N)C(=O)N[C@@H](Cc1c[nH]cn1)C(=O)N[C@@H](CC(=O)O)C(=O)N[C@H](C(=O)N[C@@H](CC(N)=O)C(=O)N[C@@H](C)C(=O)N[C@H](C(=O)N[C@@H](CCCCN)C(=O)O)[C@@H](C)O)[C@@H](C)O` [3102.0197] (H-RVHDTNATK-OH) was tested, and the IC50 was 7.7 nM. `CC[C@H](C)[C@H](NC(=O)[C@H](CC(N)=O)NC(=O)[C@@H](NC(=O)[C@@H](NC(=O)[C@H](Cc1ccccc1)NC(=O)[C@@H](NC(=O)[C@H](C)N)[C@@H](C)O)[C@@H](C)O)C(C)C)C(=O)N[C@@H](Cc1ccccc1)C(=O)N[C@@H](CCCCN)C(=O)O` [3102.0081] (H-ATFTVNIFK-OH) showed an IC50 of 3.1 nM. For `CC(C)C[C@H](NC(=O)[C@H](Cc1ccc(O)cc1)NC(=O)[C@H](CO)NC(=O)[C@H](CO)NC(=O)[C@H](CO)NC(=O)[C@@H](NC(=O)[C@@H](N)CO)[C@@H](C)O)C(=O)N[C@@H](Cc1ccc(O)cc1)C(=O)N[C@@H](C)C(=O)O` [3102.0171] (H-STSSSYLYA-OH), the IC50 was 13 nM. Work on `C[C@@H](O)[C@H](NC(=O)[C@@H](N)CCCNC(=N)N)C(=O)N[C@@H](Cc1c[nH]cn1)C(=O)N[C@@H](Cc1ccccc1)C(=O)N[C@@H](CO)C(=O)N[C@@H](CCC(N)=O)C(=O)N1CCC[C@H]1C(=O)N[C@@H](CO)C(=O)NCC(=O)O` [3102.0048] (H-RTHFSQPSG-OH) yielded an IC50 of 15 nM. `CC(C)[C@H](NC(=O)[C@H](Cc1ccc(O)cc1)NC(=O)[C@H](CO)NC(=O)[C@H](Cc1ccc(O)cc1)NC(=O)[C@@H](NC(=O)[C@@H]1CCCN1C(=O)[C@H](CCCCN)NC(=O)[C@H](Cc1ccc(O)cc1)NC(=O)[C@@H](N)CCCCN)C(C)C)C(=O)O` [3102.0143] (H-KYKPVYSYV-OH) gave an IC50 of 0.74 nM. With `CC[C@H](C)[C@H](NC(=O)[C@H](CC(N)=O)NC(=O)[C@@H]1CCCN1C(=O)[C@@H](NC(=O)[C@H](Cc1c[nH]cn1)NC(=O)[C@H](CC(N)=O)NC(=O)[C@H](CCCCN)NC(=O)[C@@H](NC(=O)[C@@H](N)CCCCN)C(C)C)[C@@H](C)CC)C(=O)O` [3102.0222] (H-KVKNHIPNI-OH) the IC50 was 0.68 nM. `CSCC[C@H](N)C(=O)N[C@@H](CC(C)C)C(=O)N[C@@H](CCCNC(=N)N)C(=O)N[C@@H](Cc1ccccc1)C(=O)N[C@@H](C)C(=O)N[C@@H](CC(N)=O)C(=O)N1CCC[C@H]1C(=O)N[C@@H](CC(C)C)C(=O)N[C@@H](CO)C(=O)O` [3102.0173] (H-MLRFANPLS-OH) gave an IC50 of 0.17 nM. With `CC(C)C[C@H](NC(=O)[C@H](CO)NC(=O)[C@@H]1CCCN1C(=O)[C@H](CC(C)C)NC(=O)[C@H](Cc1ccc(O)cc1)NC(=O)[C@H](CCCNC(=N)N)NC(=O)[C@@H](NC(=O)[C@@H](N)CCCNC(=N)N)[C@@H](C)O)C(=O)N[C@H](C(=O)O)C(C)C` [3102.0167] (H-RTRYLPSLV-OH) the IC50 was 0.49 nM. `CC[C@H](C)[C@H](NC(=O)[C@H](Cc1ccc(O)cc1)NC(=O)[C@@H](NC(=O)[C@H](CCCCN)NC(=O)[C@H](CCCCN)NC(=O)[C@H](Cc1ccccc1)NC(=O)[C@@H](N)CCCNC(=N)N)C(C)C)C(=O)N[C@@H](CC(C)C)C(=O)N[C@H](C(=O)O)C(C)C` [3102.0055] (H-RFKKVYILV-OH) was tested, and the IC50 was 13 nM. Work on `CC[C@H](C)[C@H](NC(=O)[C@H](CC(N)=O)NC(=O)[C@@H]1CCCN1C(=O)[C@H](CCCNC(=N)N)NC(=O)[C@H](Cc1ccc(O)cc1)NC(=O)[C@@H](N)CC(C)C)C(=O)N1CCC[C@H]1C(=O)N[C@@H](CC(C)C)C(=O)N[C@@H](CCCCN)C(=O)O` [3102.0026] (H-LYRPNIPLK-OH) yielded an IC50 of 3.5 nM. Compound `CC(C)[C@H](NC(=O)[C@@H](N)CCCCN)C(=O)N[C@@H](Cc1ccccc1)C(=O)N[C@H](C(=O)N1CCC[C@H]1C(=O)N[C@@H](C)C(=O)N1CCC[C@H]1C(=O)N[C@@H](Cc1ccccc1)C(=O)NCC(=O)O)C(C)C` [3102.0015] (H-KVFVPAPFG-OH) has an IC50 of 6.6 nM. `CC[C@H](C)[C@H](NC(=O)[C@@H](NC(=O)[C@@H](NC(=O)[C@H](CCCCN)NC(=O)[C@H](C)NC(=O)[C@@H](N)CCCCN)[C@@H](C)O)[C@@H](C)O)C(=O)N[C@@H](CO)C(=O)N[C@@H](CC(N)=O)C(=O)N[C@@H](Cc1ccc(O)cc1)C(=O)O` [3102.0241] (H-KAKTTISNY-OH) gave an IC50 of 24 nM. `CC(C)C[C@H](NC(=O)[C@H](CO)NC(=O)[C@H](CO)NC(=O)[C@H](CCC(=O)O)NC(=O)[C@H](CCCCN)NC(=O)[C@H](CCCCN)NC(=O)[C@H](Cc1ccccc1)NC(=O)[C@@H](N)CCCNC(=N)N)C(=O)N[C@@H](C)C(=O)O` [3102.0023] (H-RFKKESSLA-OH) showed an IC50 of 0.31 nM. In the case of `CC[C@H](C)[C@H](NC(=O)[C@H](CC(C)C)NC(=O)[C@H](CO)NC(=O)[C@@H](NC(=O)[C@H](CCCNC(=N)N)NC(=O)[C@@H](NC(=O)[C@@H](N)CCCNC(=N)N)C(C)C)[C@@H](C)CC)C(=O)N[C@@H](Cc1ccc(O)cc1)C(=O)N[C@@H](CC(C)C)C(=O)O` [3102.0249] (H-RVRISLIYL-OH), the IC50 is reported as 0.092 nM. `C[C@H](NC(=O)[C@H](C)NC(=O)[C@@H]1CCCN1C(=O)[C@H](CCCCN)NC(=O)[C@H](CO)NC(=O)[C@H](CCCNC(=N)N)NC(=O)[C@H](CO)NC(=O)[C@H](Cc1ccc(O)cc1)NC(=O)[C@@H](N)CCCCN)C(=O)O` [3102.1349] (H-KYSRSKPAA-OH) gave an IC50 of 5.7 nM. `CSCC[C@H](NC(=O)[C@@H]1CCCN1C(=O)[C@H](CC(C)C)NC(=O)[C@H](CO)NC(=O)[C@H](CCC(=O)O)NC(=O)[C@H](CCCCN)NC(=O)[C@H](CC(N)=O)NC(=O)[C@@H](N)CCCCN)C(=O)N[C@@H](CC(C)C)C(=O)O` [3102.0195] (H-KNKESLPML-OH) gave an IC50 of 18 nM. `CC(C)C[C@H](NC(=O)[C@H](CO)NC(=O)[C@H](CCCCN)NC(=O)[C@H](CO)NC(=O)[C@H](C)N)C(=O)N[C@@H](CCCCN)C(=O)N1CCC[C@H]1C(=O)N[C@H](C(=O)N[C@@H](CCCCN)C(=O)O)[C@@H](C)O` [3102.1346] (H-ASKSLKPTK-OH) was tested, and the IC50 was 15 nM. With `CC[C@H](C)[C@H](NC(=O)[C@H](Cc1ccc(O)cc1)NC(=O)[C@@H](NC(=O)[C@@H](N)CCCCN)C(C)C)C(=O)N[C@@H](CC(N)=O)C(=O)N[C@@H](Cc1c[nH]cn1)C(=O)N1CCC[C@H]1C(=O)N[C@@H](Cc1ccccc1)C(=O)N[C@@H](CCSC)C(=O)O` [3102.0124] (H-KVYINHPFM-OH) the IC50 was 0.52 nM. `C[C@H](NC(=O)[C@H](Cc1ccc(O)cc1)NC(=O)[C@H](CCCNC(=N)N)NC(=O)[C@H](Cc1ccc(O)cc1)NC(=O)[C@@H](NC(=O)[C@@H](N)CCCCN)[C@@H](C)O)C(=O)N[C@@H](Cc1ccccc1)C(=O)N[C@@H](CO)C(=O)N[C@@H](CCCCN)C(=O)O` [3102.0120] (H-KTYRYAFSK-OH) gave an IC50 of 22 nM. With `CSCC[C@H](NC(=O)[C@@H](N)CCCCN)C(=O)N[C@@H](CCCNC(=N)N)C(=O)N[C@@H](CCCNC(=N)N)C(=O)N[C@@H](CCC(=O)O)C(=O)N[C@@H](CCCNC(=N)N)C(=O)N[C@@H](C)C(=O)N[C@@H](C)C(=O)N[C@@H](Cc1ccc(O)cc1)C(=O)O` [3102.0231] (H-KMRRERAAY-OH) the IC50 was 3 nM. For `CC[C@H](C)[C@H](NC(=O)[C@H](CCCNC(=N)N)NC(=O)[C@H](CC(N)=O)NC(=O)[C@@H](NC(=O)[C@H](CCC(=O)O)NC(=O)[C@H](CCCCN)NC(=O)[C@@H](NC(=O)[C@@H](N)CCCCN)[C@@H](C)O)[C@@H](C)O)C(=O)N[C@@H](Cc1ccc(O)cc1)C(=O)O` [3102.0056] (H-KTKETNRIY-OH), the IC50 was 11 nM.
